Earlier results as cited in patent publication US20030083360A1, “Compaction process for manufacture of sodium phenytoin dosage form” (priority 2001, published 2003).
Read-outs that look alike come from different tables or passages of the source.

In the case of `O=C1NC(=O)C(c2ccccc2)(c2ccccc2)N1` [phenytoin, 5,5-diphenyl-2,4-imidazolidinedione], the solubility in water is given as “poor solubility in water” and the solubility in water (listed as free-phenytoin) is given as “practically insoluble in water”.

In the case of `O=C1N=C([O-])NC1(c1ccccc1)c1ccccc1.[Na+]` [sodium phenytoin], the solubility in water is given as “much more soluble”.
